Test results: US20130259986A1, “COMPOSITIONS AND METHODS FOR INHIBITING PRECIPITATION OF DYES IN A BEVERAGE” (Kraft Foods Global Brands LLC, priority 2012, published 2013)

Key:
[1] = Example 5: precipitation from 90× electrolyte beverage product with 0.45 wt % Red 40 and added benzaldehyde solution or propylene glycol; type: physicochemical
Procedure: A 90× electrolyte beverage product was made without flavor containing 0.45 wt % Red 40, and a 3.0% benzaldehyde solution was made with propylene glycol. The benzaldehyde solution was then added back to the flavorless base at various levels up to 10%. As a control, the same variants were made without benzaldehyde solution, but with 100% propylene glycol, to confirm that any precipitation was directly due to the benzaldehdye and not propylene glycol. The formulations are as follows: […]

[2] = Observation of precipitate in model solutions of azo-dye, salt, benzaldehyde and water; type: physicochemical; conditions: for precipitation of a single azo-dye from solutions: solutions with (1) blends of two or more salts, (2) sweetener, (3) fiber (inulin) with sodium chloride; for precipitate in a solution of the substance and water: substance and water only
Text: It was observed that many solutions fail to keep a single azo-dye species stable in the presence of electrolyte ions. For example, the azo-dye (Yellow 5, Yellow 6, or Red 40) precipitated from solutions containing the following: (1) blends of two or more salts (including potassium chloride, tripotassium phosphate, sodium chloride, and magnesium chloride) with a single azo-dye; (2) sweetener (including sucrose, fructose, and raw honey) and a single azo-dye; and (3) fiber (such as inulin) with sodium chloride and a single azo-dye.
Such precipitate is believed to be crystals of the azo-dye or possibly even co-crystals of the azo-dye with sodium chloride, sodium ions, chloride ions, or sodium and chloride ions. It is believed that the presence of an ion (not limited to sodium and/or chloride) creates an unfavorable environment for the azo-dye to exist in and causes the azo-dye to precipitate or crystallize. However, this crystallization or precipitation is not observed when levels of salt or azo-dye are below the threshold for the reaction to occur.
While wishing to not be bound by theory, a solution of benzaldehyde, salt, Red 40, and water causes precipitation through a different mechanism when compared to precipitate found from solutions of salt, an azo-dye, and water. […] Such precipitate is believed to be due the complexation of salt, Red 40, and benzaldehyde. This complexation may occur due to the thermodynamic unfavorability of all three components to exist in solution with one another. The precipitation found in this system appears to be more sediment-like rather than crystal-like precipitate found in a solution of Red 40, salt, and water. However, crystals or co-crystals may exist within the salt, Red 40, and benzaldehyde complexation and this complexation is not observed when levels of salt, azo-dye, or benzaldehyde are below the threshold for the reaction to occur.

[3] = 4 % added to 90 % electrolyte base (0.45 wt % Red 40), 0.12% benzaldehyde for the benzaldehyde solution
[4] = 6 % added to 90 % electrolyte base (0.45 wt % Red 40), 0.18% benzaldehyde for the benzaldehyde solution
[5] = 8 % added to 90 % electrolyte base (0.45 wt % Red 40), 0.24% benzaldehyde for the benzaldehyde solution
[6] = 10 % added to 90 % electrolyte base (0.45 wt % Red 40), 0.3% benzaldehyde for the benzaldehyde solution

CC(O)CO (stereo not drawn) [PG 100%, Propylene Glycol]
Observations after 2 months at 70 F. (room temp) ([1]; 0.1 % added to 90 % electrolyte base (0.45 wt % Red 40)): No precipitation
Observations after 2 months at 70 F. (room temp) ([1]; 0.25 % added to 90 % electrolyte base (0.45 wt % Red 40)): No precipitation
Observations after 2 months at 70 F. (room temp) ([1]; 0.5 % added to 90 % electrolyte base (0.45 wt % Red 40)): No precipitation
Observations after 2 months at 70 F. (room temp) ([1]; 1 % added to 90 % electrolyte base (0.45 wt % Red 40)): No precipitation
Observations after 2 months at 70 F. (room temp) ([1]; 2 % added to 90 % electrolyte base (0.45 wt % Red 40)): No precipitation
Observations after 2 months at 70 F. (room temp) [1, 3]: No precipitation
Observations after 2 months at 70 F. (room temp) [1, 4]: No precipitation
Observations after 2 months at 70 F. (room temp) [1, 5]: No precipitation
Observations after 2 months at 70 F. (room temp) [1, 6]: No precipitation

COc1cc(S(=O)(=O)[O-])c(C)cc1N=Nc1c(O)ccc2cc(S(=O)(=O)[O-])ccc12.[Na+].[Na+] [Red 40]
precipitate / complexation in a solution of salt, azo-dye, benzaldehyde, and water [2]: not stable and produces precipitate
precipitation of a single azo-dye from solutions [2]: precipitated
precipitate in a solution of the substance and water [2]: free of precipitate

O=C(O)c1nn(-c2ccc(S(=O)(=O)O)cc2)c(O)c1N=Nc1ccc(S(=O)(=O)O)cc1 [Yellow 5]
precipitate / complexation in a solution of salt, azo-dye, benzaldehyde, and water [2]: no complexations were observed
precipitation of a single azo-dye from solutions [2]: precipitated
precipitate in a solution of the substance and water [2]: free of precipitate

O=S(=O)([O-])c1ccc(N=Nc2c(O)ccc3cc(S(=O)(=O)[O-])ccc23)cc1.[Na+].[Na+] [Yellow 6]
precipitate / complexation in a solution of salt, azo-dye, benzaldehyde, and water [2]: no complexations were observed
precipitation of a single azo-dye from solutions [2]: precipitated
precipitate in a solution of the substance and water [2]: free of precipitate

O=Cc1ccccc1 [benzaldehyde]
Observations after 2 months at 70 F. (room temp) [1, 3]: formed precipitation
Observations after 2 months at 70 F. (room temp) [1, 4]: formed precipitation
Observations after 2 months at 70 F. (room temp) [1, 5]: formed precipitation within hours
Observations after 2 months at 70 F. (room temp) [1, 6]: formed precipitation within hours
benzaldehyde content at which the system is free of precipitation ([1]; 90× electrolyte concentrate with 0.45 wt % Red 40, stored for up to 2 months): up to 0.11%
precipitate in a solution of the substance and water [2]: free of precipitate
